Results reported in patent publication US11952330B2, “Antibiotic ammonium compounds and methods for the treatment of bacterial infections” (priority 2019, dated 2024).
Where two headings read alike, the source gives them in different places.

How the values were obtained:
A. baumannii [1] = test: MIC by broth dilution, A. baumannii; type: cell-based; settings: Acinetobacter baumannii, Mueller-Hinton broth
Summary of the method: (§1)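 Broth dilution in Mueller-Hinton broth with 2-fold compound steps over 1–256 μg/mL (final) and 5×10^5 CFU/mL inoculum, incubated overnight at 37 °C. The MIC is the lowest concentration without visible turbidity, from at least biological duplicates of technical triplicates. A parallel series was supplemented with 5% (final) human plasma.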

[2] = system: vancomycin-resistant enterococcus (VRE); test: Mouse assay, oral inoculation with VRE, viable bacteria in intestines; type: in vivo; settings: neonate CD-1 mice, 10^7 CFU oral, compound co-administered at 1 mg/kg, intestines harvested after 4 hours
Method: (§2) Mouse assays were used to evaluate the in vivo activity of compound 95. Male and female neonate CD-1 mice were orally innoculated with 10^7 colony forming units of enterotoxigenic Escherichia coli (ETEC) (FIG. 2A) or vancomycin-resistant enterococcus (VRE) (FIG. 2B) and co-administered compound 95 at 1 mg/kg. Intestines were harvested after 4 hours and plated to determine viable bacteria.

[3] = system: enterotoxigenic Escherichia coli (ETEC); test: Mouse assay, oral inoculation with ETEC, viable bacteria in intestines; type: in vivo; settings: neonate CD-1 mice, 10^7 CFU oral, compound co-administered at 1 mg/kg, intestines harvested after 4 hours
Method: as §2

A. baumannii [4] = test: MIC by broth dilution in presence of 5% human plasma (esterases), A. baumannii; type: cell-based
Method: The antibacterial efficacy of ammonium compounds in the presence of human plasma was assessed. Minimum inhibitory concentrations (MICs) were determined by broth dilution method. Dilutions of each compound, ranging from 1 μg/mL to 256 μg/mL (final concentrations) were prepared in Mueller-Hinton broth. For the plasma containing samples, compound dilutions were made in Mueller-Hinton broth and supplemented with 5% (final %) human plasma (esterases). Compound dilutions were added to wells of a 96-well plate, with the concentration of the compound increasing 2-fold by row. Each well contained 5×10^5 CFU/mL of target bacterium in a total volume of 100 μL. Plates were incubated overnight at 37° C. The following day, plates were evaluated for a visual change in growth to determine the MIC. The concentration value corresponding to the first row that no longer had visible bacterial growth, as evaluated by turbidity in the wells, was recorded as the MIC. MIC values were representative of at least biological duplicates, each made up of technical triplicates.

S. aureus = test: MIC by broth dilution, S. aureus; type: cell-based; settings: for MIC: Staphylococcus aureus, Mueller-Hinton broth
Summary of the method: as §1

human red blood cell = test: In vitro hemolysis assay; type: cell-based
Method: The hemolytic potential of ammonium compounds were assessed in vitro. A human red blood cell solution (RBC) was prepared by washing 400 μL of fresh RBCs twice with 7 mL of 1×PBS (pH 7.4) by centrifugation at 4° C., 2500 rpm for 10 minutes. The precipitates were then resuspended in 4 mL of 1×PBS. Hemolysis testing was performed by mixing 500 μL of freshly prepared test compound solutions at a final concentration of both 16 μg/mL and 32 μg/mL in 1×PBS with 400 μL of the washed human RBCs. Two control samples were prepared by separately mixing 400 μL of washed RBCs with 500 μL of 1×PBS (negative control) and 1% Triton X-100 (w/v). After incubation in a water bath at 37° C. for 1 hour, the samples were centrifuged at 2500 rpm for 10 minutes. 300 μL of the supernatant were collected for measurement in a 96-well plate. The release of hemoglobin was assessed by measuring the absorbance of the samples at 540 nm using 1×PBS as the blank. Hemolysis percent was calculated using Equation 1: […]

CCCCCCCOc1cc(F)ccc1C(=O)Nc1ccc(S(=O)(=O)NCC[N+](CC)(CC)CCCC)cc1.[Br-] [Compound 95, N,N-Diethyl-N-(2-((4-(4-fluoro-2-(heptyloxy)benzamido)phenyl)sulfonamido)-ethyl)butan-1-aminium bromide]
MIC (A. baumannii [1]; no plasma, Table 2, read-out: MIC (μg/ml) A. baumannii): 3 to 30 µg/mL
MIC (A. baumannii [1]; overnight 37° C., Table 1, read-out: MIC (μg/mL) A. baumannii): 3 to 30 µg/mL
viability and colonization of VRE in intestines [2]: significantly decreased viablity and colonization
viability and colonization of ETEC in intestines [3]: significantly decreased viablity and colonization
stability in the presence of enzymes that are found in the gut, compared with otilonium bromide (11), in words (A. baumannii [4]; 5% human plasma): better stability than otilonium bromide
increase in stability (A. baumannii [4]; 5% human plasma, vs otilonium bromide (11)): four- to eight-fold
Δ MIC A. baumannii + human plasma (A. baumannii [4]; broth supplemented with 5% human plasma (esterases) vs no plasma): 2X
antimicrobial activity against Gram positive S. aureus relative to otilonium bromide, in words (S. aureus): comparable or better than the activity of otilonium bromide
MIC (S. aureus; no plasma, Table 2, read-out: MIC (μg/ml) S. aureus): 3 to 30 µg/mL
MIC (S. aureus; overnight 37° C., Table 1, read-out: MIC (μg/mL) S. aureus): 3 to 30 µg/mL
% hemolysis at 16 μg/ml (human red blood cell; 16 μg/ml, human RBCs, 37° C., 1 hour): 3%
% hemolysis at 32 μg/ml (human red blood cell; 32 μg/ml, human RBCs, 37° C., 1 hour): 14%
hemolysis as compared to otilonium bromide (11), in words (human red blood cell; 16 and 32 μg/mL): reduced hemolysis as compared to otilonium bromide
reduction in hemolysis as compared to otilonium bromide (11) (human red blood cell; at 32 μg/mL): 85%
